Experimental data published in ChEMBL document CHEMBL1201862, “PubChem BioAssay data set” (2004).
Blank lines part the entries; values can stand above or below the compound they belong to. Activity calls are given as the source filed them.

Tests used:
[1] = P. falciparum Dd2 growth inhibitors, dose response, SYBR Green, cherry-picked samples (AID 1159567); assay type: functional, cell-based
[2] = biological target: Glyceraldehyde-3-phosphate dehydrogenase (Homo sapiens, UniProt P04406)
Bcl-2-related protein A1 [3] = biological target: T1, Bcl-2-related protein A1 (Mus musculus, UniProt Q07440); experiment: small-molecule antagonists of Bfl-1/BH3 interaction – biochemical, TR-FRET, mouse Bfl-1, confirmation (AID 621);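 also: TR-FRET binding of GST-Bfl-1 to FITC-labelled Bid peptide via terbium antibody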
T1 sequence (Q07440 whole entry): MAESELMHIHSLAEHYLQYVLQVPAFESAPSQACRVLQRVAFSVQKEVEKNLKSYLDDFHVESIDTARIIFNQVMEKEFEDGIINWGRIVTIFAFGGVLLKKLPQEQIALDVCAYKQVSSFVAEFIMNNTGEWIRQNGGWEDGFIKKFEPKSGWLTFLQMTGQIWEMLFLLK

Bcl-2-related protein A1 [4] = biological target: T1, Bcl-2-related protein A1; experiment: Bfl-1 binding inhibitors, SAR follow-up, biochemical, fluorescence polarization (AID 1070)
[5] = biological target: FAD-linked sulfhydryl oxidase ALR (Homo sapiens, UniProt P55789); experiment: ALR-catalysed DTT oxidation blockers – biochemical, H2O2 detection, luminescence, cherry-pick, dose response (AID 493248)
Protein skinhead-1 = biological target: T2, Protein skinhead-1 (Caenorhabditis elegans, UniProt P34707); assay type: functional
T2 sequence (P34707 whole entry): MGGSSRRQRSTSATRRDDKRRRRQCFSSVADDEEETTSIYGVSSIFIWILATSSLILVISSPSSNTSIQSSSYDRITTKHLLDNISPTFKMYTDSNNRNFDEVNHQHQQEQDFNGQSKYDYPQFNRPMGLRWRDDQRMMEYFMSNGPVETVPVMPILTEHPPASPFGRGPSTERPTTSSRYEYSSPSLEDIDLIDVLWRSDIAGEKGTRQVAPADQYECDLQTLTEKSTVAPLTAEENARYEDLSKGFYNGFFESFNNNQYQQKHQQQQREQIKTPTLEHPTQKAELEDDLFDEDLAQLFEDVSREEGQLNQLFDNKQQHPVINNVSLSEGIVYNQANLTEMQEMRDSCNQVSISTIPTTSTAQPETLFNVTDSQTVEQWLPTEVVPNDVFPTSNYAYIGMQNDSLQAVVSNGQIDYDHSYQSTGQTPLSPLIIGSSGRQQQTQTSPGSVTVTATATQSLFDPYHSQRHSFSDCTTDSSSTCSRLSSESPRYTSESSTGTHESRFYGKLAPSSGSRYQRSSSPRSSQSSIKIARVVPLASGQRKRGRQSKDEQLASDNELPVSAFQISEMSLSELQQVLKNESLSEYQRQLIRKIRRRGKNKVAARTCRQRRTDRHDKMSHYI

[6] = biological target: T3, Rac GTPase-activating protein 1 (Homo sapiens, UniProt Q9H0H5); experiment: blockers of MgcRacGAP-driven Rac1 GTP hydrolysis – biochemical, ADP Hunter fluorescence, primary and confirmatory, confirmation (AID 624330); assay type: functional
T3 sequence (Q9H0H5 whole entry): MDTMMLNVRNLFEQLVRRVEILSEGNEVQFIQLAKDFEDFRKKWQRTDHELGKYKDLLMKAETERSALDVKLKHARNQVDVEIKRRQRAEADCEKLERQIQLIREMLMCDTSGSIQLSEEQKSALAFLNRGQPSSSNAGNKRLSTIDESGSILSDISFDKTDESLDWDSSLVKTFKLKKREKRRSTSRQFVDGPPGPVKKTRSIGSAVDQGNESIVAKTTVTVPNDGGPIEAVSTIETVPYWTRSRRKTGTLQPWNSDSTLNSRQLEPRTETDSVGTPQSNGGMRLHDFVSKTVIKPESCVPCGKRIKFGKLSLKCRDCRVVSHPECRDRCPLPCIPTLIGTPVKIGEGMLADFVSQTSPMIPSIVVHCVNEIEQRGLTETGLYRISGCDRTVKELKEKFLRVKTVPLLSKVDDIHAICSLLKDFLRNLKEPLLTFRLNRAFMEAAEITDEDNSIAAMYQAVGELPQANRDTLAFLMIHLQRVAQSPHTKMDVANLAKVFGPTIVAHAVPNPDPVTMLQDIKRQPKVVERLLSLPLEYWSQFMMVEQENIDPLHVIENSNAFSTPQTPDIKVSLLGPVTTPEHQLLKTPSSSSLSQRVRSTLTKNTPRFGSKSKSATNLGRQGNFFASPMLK

Protein Tat = biological target: T4, Protein Tat (Human immunodeficiency virus type 1 group M subtype B (isolate HXB2)(HIV-1), UniProt P04608); assay type: functional;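 also: tat binding to TAR RNA read out by fluorescence polarization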
T4 sequence (P04608 whole entry): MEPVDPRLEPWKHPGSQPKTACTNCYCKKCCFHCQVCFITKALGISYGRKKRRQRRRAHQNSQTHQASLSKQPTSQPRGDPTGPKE

[7] = HIV-1 Vif–A3G interaction blockers – biochemical, TR-FRET, GST-Vif 1-94, biotin-A3G peptide, dose response retest, primary screen (AID 1117319); assay type: functional;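 also: TR-FRET signal of purified GST-Vif binding a biotinylated A3G peptide; inhibitors lower the FRET signal by blocking Vif and A3G binding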
[8] = biological target: T5, Dual specificity protein phosphatase 6 (Rattus norvegicus, UniProt Q64346); experiment: inhibition of rat DUSP6 enzyme activity – biochemical, in vitro, primary screen (AID 425)
T5 sequence (Q64346 whole entry): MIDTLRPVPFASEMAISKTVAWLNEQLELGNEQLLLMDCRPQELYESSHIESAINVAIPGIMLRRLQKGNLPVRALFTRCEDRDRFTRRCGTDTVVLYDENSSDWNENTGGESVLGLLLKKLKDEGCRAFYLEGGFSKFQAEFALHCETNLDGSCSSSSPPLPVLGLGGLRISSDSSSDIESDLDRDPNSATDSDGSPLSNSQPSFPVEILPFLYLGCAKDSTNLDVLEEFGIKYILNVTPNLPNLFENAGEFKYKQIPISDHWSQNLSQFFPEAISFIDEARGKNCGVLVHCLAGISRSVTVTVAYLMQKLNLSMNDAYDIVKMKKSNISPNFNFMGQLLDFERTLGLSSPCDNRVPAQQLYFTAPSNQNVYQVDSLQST

Cytochrome P450 1A2 = biological target: T6, Cytochrome P450 1A2 (Homo sapiens, UniProt P05177);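 also: PubChem cytochrome P450 panel assay, CYP1A2 panel member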
T6 sequence (P05177 whole entry): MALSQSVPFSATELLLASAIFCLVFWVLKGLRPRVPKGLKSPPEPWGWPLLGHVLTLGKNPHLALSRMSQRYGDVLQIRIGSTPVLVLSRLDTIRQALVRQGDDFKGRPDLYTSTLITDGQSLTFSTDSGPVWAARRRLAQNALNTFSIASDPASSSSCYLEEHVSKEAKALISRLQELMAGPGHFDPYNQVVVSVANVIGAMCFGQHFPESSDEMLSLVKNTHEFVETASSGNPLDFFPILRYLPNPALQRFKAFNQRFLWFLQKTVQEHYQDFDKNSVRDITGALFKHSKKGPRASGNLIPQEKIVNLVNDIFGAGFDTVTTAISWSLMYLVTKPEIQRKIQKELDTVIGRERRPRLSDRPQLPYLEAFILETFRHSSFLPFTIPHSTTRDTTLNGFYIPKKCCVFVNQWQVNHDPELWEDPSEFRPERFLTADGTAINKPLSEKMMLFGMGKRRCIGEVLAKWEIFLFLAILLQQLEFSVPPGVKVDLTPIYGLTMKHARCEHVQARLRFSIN

[9] = blockers of HIV-1 envelope-mediated cell-cell fusion – cherry-pick, dose response (AID 652057); assay type: functional, cell-based
[10] = blockers of HIV-1 ZM109 envelope-driven cell-cell fusion – HeLa effector, CEM target cells, luciferase, cherry-pick, dose response (AID 652058); assay type: functional, cell-based;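 also: luciferase signal from HIV-1 Env mediated cell-cell fusion of effector and target cells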
[11] = off-target signal loss in HeLa-CEM21 co-culture – HeLa F-luc CTL cells, cherry-picked, counter-screen for HIV-1 Env fusion inhibitor project, dose response (AID 652040); assay type: functional, cell-based;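 also: potency for signal decrease marking cytotoxic or nonspecific inhibition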
[12] = HIV-1 AD8 envelope cell-cell fusion blockers – cherry-pick, dose response (AID 652062); assay type: functional, cell-based;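 also: luciferase signal from cell-cell fusion driven by HIV-1 clade B AD8 Env; potency is for inhibitors of fusion seen as a drop in luminescence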
[13] = Trypanosoma cruzi growth suppression in host cells – NIH3T3 host cells, beta-gal luminescence, confirmation (AID 2044); assay type: functional, cell-based;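 also: intracellular parasites grown in NIH/3T3 mouse fibroblasts as host cells; luminescent beta-galactosidase reporter signal from transgenic T. cruzi replicating inside host cells; inhibitors lower the luminescence signal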
[14] = NIH3T3 cell viability loss – ATP luminescence, mouse fibroblasts, counter-screen, dose response (AID 2010); assay type: functional, cell-based;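 also: cells exposed to compound for about 90 hours before reading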

Chain of Glyceraldehyde-3-phosphate dehydrogenase (P04406 whole entry): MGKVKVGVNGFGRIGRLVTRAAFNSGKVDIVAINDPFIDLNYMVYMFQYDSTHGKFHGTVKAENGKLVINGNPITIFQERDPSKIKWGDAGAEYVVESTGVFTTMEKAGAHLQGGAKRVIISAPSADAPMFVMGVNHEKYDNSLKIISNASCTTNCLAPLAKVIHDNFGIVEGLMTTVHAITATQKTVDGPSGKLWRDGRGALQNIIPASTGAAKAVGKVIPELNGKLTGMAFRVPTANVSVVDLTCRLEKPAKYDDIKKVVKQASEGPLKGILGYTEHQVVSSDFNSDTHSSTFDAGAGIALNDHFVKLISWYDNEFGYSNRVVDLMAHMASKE
Chain of FAD-linked sulfhydryl oxidase ALR (P55789 whole entry): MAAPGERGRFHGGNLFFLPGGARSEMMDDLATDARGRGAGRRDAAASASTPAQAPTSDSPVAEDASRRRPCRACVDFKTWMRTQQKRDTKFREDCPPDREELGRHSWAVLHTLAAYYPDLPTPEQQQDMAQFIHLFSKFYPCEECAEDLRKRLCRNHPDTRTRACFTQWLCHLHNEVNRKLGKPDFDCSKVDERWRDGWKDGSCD

Structure (SMILES): CCS(=O)(=O)N1[C@H](CO)[C@H](c2ccc(C#Cc3ccccc3F)cc2)[C@@H]1C#N
- AC50 [1]: 4.23 µM (active)

Structure (SMILES): COCCn1c(-c2ccccc2Cl)nc2c(c(=O)c3ccccc3n2C)c1=O
- IC50 (cells): 14.6 µM (active)

Structure (SMILES): COC(=O)[C@]1(C)N[C@H](CN(C)S(=O)(=O)c2ccc(-c3ccccc3)cc2)[C@@H]2C(=O)N(Cc3ccccc3)C(=O)[C@@H]21
- AC50 [9]: 3.7 µM (active)
- AC50 [10]: 9.4 µM (active)
- AC50 [11]: 5.77 µM (active)
- AC50 [12]: 11.7 µM (active)

Structure (SMILES): CC(=O)c1ccc(S(=O)(=O)N2CCN(c3nc4c(C)c(C)ccc4cc3C#N)CC2)cc1
- EC50 [13]: 1.9 µM (active)
- EC50 [14]: > 60 µM (not active)
- AC50 [11]: 10.3 µM (active)
- AC50 [12]: 11.2 µM (active)

Next, values leading:

- IC50 [2]: > 100 µM (not active)
- IC50 (Bcl-2-related protein A1 [3]): > 100 µM (not active)
- IC50 (Bcl-2-related protein A1 [4]): > 100 µM (not active)
Structure (SMILES): O=C1C(Cl)=C(Nc2ccccc2)C(=O)N1c1ccc(Cl)c(Cl)c1

- AC50 [5]: 0.57 µM (active)
- IC50 (Protein skinhead-1): > 100 µM (inactive)
- IC50 [6]: 10.5 µM (active)
- IC50 (Protein Tat): 13.7 µM (inconclusive)
- IC50 [7]: > 50.5 µM (active)
Structure (SMILES): CC(=O)N1CCN(c2ccc(NCc3ccccc3)cc2)CC1

- IC50 [8]: > 100 µM (not active)
- AC50 (Cytochrome P450 1A2): 31.6 µM (inconclusive)
Structure (SMILES): COc1ccc(S(=O)(=O)N2CCC(NC(=O)Nc3ccc(C)cc3)CC2)cc1

- IC50 [2]: > 100 µM (not active)
- IC50 (Bcl-2-related protein A1 [3]): 2.46 µM (active)
- IC50 (Bcl-2-related protein A1 [4]): 1.9 µM (active)
Structure (SMILES): O=C1C(Cl)=C(N2CCN(c3ncccn3)CC2)C(=O)N1c1ccc(Cl)c(Cl)c1
